System: primary prevention patients unable to tolerate recommended doses of statins
Experiment: CLEAR OUTCOMES primary prevention subgroup (Example 2): investigator-reported adverse events and safety laboratory findings
Format: in vivo
Method: The rationale, design and methods of the CLEAR Outcomes trial is described in Example 1. The trial was conducted at 1250 sites in 32 countries and designed by the Cleveland Clinic Coordinating Center for Clinical Research (C5Research) and an academic Executive Committee in collaboration with the sponsor. The protocol was approved by ethics committees at participating sites and all patients provided written informed consent before enrollment. A contract research organization collected the data which were transferred to C5Research at completion of the trial whose statisticians conducted the analyses described herein. An independent Data Monitoring Committee monitored the trial.
Primary prevention patients 18 to 85 years of age with an LDL cholesterol ≥100 mg/dL with clinical features placing them at high risk for a first cardiovascular event were eligible. Criteria for high cardiovascular risk included risk scores, such as the Reynolds Risk Score and the SCORE project (Ridker et al., Development and validation of improved algorithms for the assessment of global cardiovascular risk in women: the Reynolds Risk Score, JAMA. 2007 Feb. 14; 297(6):611-9; Ridker et al., C-reactive protein and parental history improve global cardiovascular risk prediction. The Reynolds Risk Score for men, Circulation. 2008; 118: 2243-2251; European Guidelines on CVD Prevention in Clinical Practice. 2016. Eur J Prev Cardiol. 2016 July; 23(11):NP1-NP96), a coronary artery calcium score >400 Agatston units (AU) or presence of either type 1 or 2 diabetes in women aged >65 years or men older than 60 years.
Investigators were responsible for assessing the patient for statin intolerance. Patients had to report statin intolerance due to an adverse effect that started or increased during statin therapy and resolved or improved after statin therapy was discontinued. Entry criteria required inability to tolerate 2 or more statins at any dose or 1 statin and unwillingness to attempt a second statin or advised by a physician not to attempt taking a second statin. Both the patient and site investigator were required to provide written confirmation that the patient was statin intolerant and aware of the benefits of statins to reduce the risk of cardiovascular events, including death, and acknowledge that many patients who are unable to tolerate a statin can tolerate a different statin or dose. Patients could be enrolled if they tolerated a very low average daily statin dose defined as rosuvastatin <5 mg, atorvastatin <10 mg, simvastatin <10 mg, lovastatin <20 mg, pravastatin <40 mg, fluvastatin <40 mg, or pitavastatin <2 mg. Other background lipid-lowering therapies were permitted, including ezetimibe, niacin, bile acid resins, fibrates, and/or proprotein convertase subtilisin kexin type 9 (PCSK9) inhibitors.
Eligible patients entered a 4-week run-in period during which patients were treated with single-blind placebo. If patients were intolerant to placebo treatment or if adherence was <80% by tablet count, they were not eligible for randomization. Patients who successfully completed the run-in period were randomly assigned in a 1:1 ratio to receive a 180 mg oral dose of bempedoic acid or matching placebo, administered daily. During the trial, LDL cholesterol and hsCRP results were masked. Beginning 6 months after randomization, the central laboratory notified the investigator, who remained blinded to treatment assignment, if the patient's LDL cholesterol level was ≥25% higher than baseline. Repeat testing was performed after the patient was counseled about diet and encouraged to take all medications as prescribed. The patient returned for a repeat fasting blood lipid profile to confirm whether the LDL cholesterol value exceeded the threshold criteria. If confirmed, the patient's treatment regimen for LDL cholesterol lowering could be adjusted, per standard of care and local practice. […]

[1] = primary prevention safety population
[2] = primary prevention safety population, N = 2104
[3] = primary prevention, after 6 months
[4] = primary prevention, after 12 months

CC(C)(CCCCCC(O)CCCCCC(C)(C)C(=O)O)C(=O)O [Bempedoic Acid, Bempedoic acid]
New onset diabetes in patients with pre-diabetes at baseline, % [1]: (8.4) % | New onset diabetes in patients without diabetes at baseline, % [1]: (6.4) % | Adjudicated tendon rupture, % [2]: 1.4% | Adverse event leading to drug discontinuation, % [2]: 9.9% | Any treatment emergent adverse event, % [2]: 84.8% | Atrial fibrillation, % [2]: 2.5% | Cholelithiasis, % [2]: 2.5% | Discontinuation of treatment due to myalgia, % [2]: 1.4% | Elevated hepatic enzymes, % [2]: 4.5% | Gout, % [2]: 2.6% | Hyperuricemia, % [2]: 12.1% | Hypoglycemia, % [2]: 4.9% | Malignancies, % [2]: 4.0% | Muscular disorders, % [2]: 12.8% | Myalgias, % [2]: 4.2% | Neurocognitive disorders, % [2]: 0.4% | Renal impairment, % [2]: 10.3% | Serious treatment emergent adverse event, % [2]: 19.9% | Tendinopathies, % [2]: 1.8% | Change from baseline in creatinine levels, mean (SD) [3]: 0.05 (0.19) mg/dL | Change from baseline in uric acid level, mean (SD) [3]: 0.80 (1.1)^ mg/dL | Patients with creatinine >1.5 mg/dL, % [3]: (3.3%) | Patients with uric acid level >8.5 mg/dL, % [3]: (10.8%) | Change from baseline in glycated hemoglobin level (%), patients with diabetes at baseline [4]: 0.03(0.96) % | Change from baseline in glycated hemoglobin level (%), patients without diabetes at baseline [4]: 0.02(0.26) % | Change from baseline in glycated hemoglobin level (%) (primary prevention, after 12 months, not a prespecified safety measure): 0.03 (0.79) % | Aspartate aminotransferase level >3 times ULN, % (primary prevention, at any visit): 3.5% | Creatine kinase levels >10x ULN (single occurrence), % (primary prevention, at any visit, N = 2104): 0.2% | Alanine aminotransferase level >3 times ULN, % (primary prevention, at any visit, repeated and confirmed): 2.1% | Worsening hyperglycemia, % (primary prevention, in patients with diabetes at baseline): (21.6) %

— patent US20240226049A1, “METHODS OF TREATMENT USING BEMPEDOIC ACID” (Esperion Therapeutics, Inc., priority 2023, published 2024)
